Results: patent US11220516B2, “Nitric oxide-releasing antibiotics, methods of making, and methods of use” (University of Georgia Research Foundation, Inc., priority 2019, dated 2022)
Like-named read-outs stand apart in the source and are kept apart here.

Tests used:
[1] = SNAP leachate from blended CarboSil films in PBS (UV-vis absorbance at 340 nm); type: physicochemical; details: equimolar blend in CarboSil films, PBS at 37° C., end of 4 day study
Method: Leaching of SNAPicillin and SNAP was done by first blending equimolar amounts of the corresponding chemical (33.33 μmol mL^−1) into solutions of CarboSil dissolved in THF (50 mg mL^−1) and subsequently cast into Teflon molds to dry overnight. The dried films were then weighed and measured before being submerged into PBS. Quantification of SNAP leaching into solution was done by measuring absorbance at 340 nm via UV-vis analysis.
(§1) One issue holding back using the direct administration of NO donors as an effective therapeutic is its short half-life. To address this, a common method for controlling and directing the NO release of a donor in a localized and targeted area is to encapsulate it within a polymer. This strategy is also used for antibiotics and antiseptics as well, as catheters have been fabricated with physically blended drugs to combat and prevent infection.^28-30 One key advantage for modifying the ampicillin with SNAP was its change in solubility. A large majority of antibiotics are not soluble in organic solvents, limiting its ability to evenly disperse within polymer matrices when coated or impregnated within the bulk material. […] The polymer films were measured and weighed before being immersed in PBS at 37° C. and were periodically taken out to examine either SNAP or ampicillin leachates (FIGS. 3A-3B). […]

[2] = test system: 48 h old preformed S. aureus biofilms; assay: Biofilm dispersal assay on CarboSil polymer films; type: cell-based, Staphylococcus aureus (ATCC 6538); details: for reduction in planktonic bacteria in solution: bacteria shed from 48 h S. aureus biofilm; for inhibition at 500 µM: Staphylococcus aureus, read-out: reduction of viable bacteria adhered on the films (biofilm)
Method: Biofilms were grown for 48 h on circular CarboSil polymer films fabricated with a surface area of 1 cm^2. Solutions of S. aureus were prepared by placing one colony of bacteria in Luria Broth and incubated at 37° C. until the solution reached approximately 10^6 to 10^8 CFU mL^−1. Each polymer film was suspended in 2 mL of the bacteria solution and the solution was replenished with a fresh bacteria solution at 24 h of incubation. For the duration of the study the samples were incubated on a shaker at 150 rpms. After 48 h, the films were removed from the bacteria solutions and each film was gently rinsed with 5 ml of sterile PBS to remove any planktonic bacteria. The films were next incubated with 1 mL their specified test solutions and each solution type was tested at n=4. Each test solution was prepared with sterilized PBS and calculated to contain either 500 μM of ampicillin, SNAP, or SNAPicillin. After 24 h, the polymer films were removed from the test solutions, gently rinsed with PBS to remove planktonic bacteria, and homogenized in sterile PBS to remove any viable bacteria from the biofilm. The collected bacteria were serially diluted, plated on LB agar, and incubated for 18 h to achieve countable CFUs for comparison. A similar procedure was then done for the planktonic bacteria suspended in the solution of the incubated films to observe viable bacteria that shed from the potentially dispersed biofilms.
While NO release from SNAP may have difficulties diffusing through agar for disk diffusion testing, it is extremely potent at dispersing biofilms. […] The polymer films were then immersed into solutions containing either ampicillin, SNAP, or SNAPicillin at a concentration of 500 μM and the adhered bacteria remaining on the film as well as the planktonic bacteria within the solutions were observed (FIGS. 7 and 8).

[3] = Ampicillin leachate from blended CarboSil films in PBS with EDTA (alkaline potassium permanganate oxidation); type: physicochemical; details: equimolar blend in CarboSil films, PBS at 37° C., 4 days
From the text: Ampicillin eachate from CarboSil films was done by making polymer solutions with equimolar amounts of SNAPicillin and ampicillin. Ampicillin was first dissolve in a small amount of methanol before being added to CarboSil in THF solutions and then solvent casted into Teflon molds. Films were then weighed and immersed in PBS containing EDTA. Quantification of ampicillin leaching into solution was done via the oxidation reaction with alkaline potassium permanganate following a previously established protocol.^24
as §1, with “solubility.” for “solubility. A large majority of antibiotics are not soluble in organic solvents, limiting its ability to evenly disperse within polymer matrices when coated or impregnated within the bulk material.”

[4] = NO release from blended CarboSil polymer films over 7 days and NO donor remaining (UV-VIS); type: physicochemical; details: for NO donor remaining within the CarboSil polymer films: 168 h
Method: (§2) Real time NO release was measured using a Sievers 280i NOA (Nitric Oxide Analyzer). Polymer films containing SNAPicillin or SNAP were immersed in amber reaction vessels containing PBS (pH 7.4) with 100 μM EDTA to chelate any metal ion contaminants within the buffer. Solutions were continuously purged with a nitrogen sweep gas and bubbler to carry the NO from the solution directly to the NOA. In a separate NO releasing study, solutions containing 500 μM of either SNAPicillin or SNAP in PBS with EDTA were also tested under physiological conditions to obtain the stabilized NO release profile to compare passive release kinetics.
A separate NO release study was also done by physically blending equimolar amounts into solutions of CarboSil, and solvent casting a thin polymer film to be analyzed. Since polymer films blended with SNAP are a common strategy to create a surface with controlled, localized NO release, a comparison of NO release was done using SNAPicillin containing polymer films to examine its potential as an alternative novel NO donor. The fabricated films were placed in PBS (pH 7.4) containing 0.01 mM EDTA at 37° C. to observe the real time NO releasing kinetics. […] This is contrary to the pure solutions that were previously placed under physiological conditions, where SNAP was able to have a higher initial release. The difference is most likely is due to the leaching rate of either SNAP or SNAPicillin from a hydrophobic polymer matrix.
The amount of NO donor remaining in the films was also quantified using UV-VIS after this time period to examine the potential release beyond the recorded 7 days. […] As mentioned previously, due to the larger molecular weight of SNAPicillin, it was able to stay within the CarboSil matrix for a longer period of time when compared to SNAP blended films. This further emphasizes the versatility of the SNAPicillin donor as a possible RSNO donor substitute for NO releasing polymers that require sustained or controlled release kinetics with the additional antimicrobial functionality.

S. aureus = assay: Zone of inhibition assay (agar diffusion) of blended CarboSil films; type: cell-based, Staphylococcus aureus (ATCC 6538); details: 8 mm diameter; for ZOI values against S. aureus: overnight at 37° C.
Method: Zone of inhibition (ZOI) testing was done on polymer films containing the same composition of either ampicillin, SNAP, or SNAPicillin used in the leachate and NOA studies. A standard agar diffusion protocol was followed and tested against S. aureus. A single colony of bacterium was suspended into LB and incubated at 37° C. for 14 h while being rotated at 150 rpm. The optical density of each bacterial culture was then measured at 600 nm using a UV-Vis spectrophotometer. The observed optical density was adjusted to 1×10^7 colony forming units per mL using a standard calibration curve of each corresponding bacteria. A sterile cotton swab was then used to dip into each culture media and spread onto premade LB-agar petri dishes. The polymer films of either ampicillin, SNAP, SNAPicillin, along with controls (diameter: 8 mm, thickness: 200 μm) were then placed on top of the petri dishes and allowed to incubate overnight at 37° C. The ZOI was then measured and compared the following day to observe the antimicrobial effects of synthesized SNAPicillin molecule within a hydrophobic matrix.
A significant advantage of using targeted antibiotics over NO releasing polymers is seen in its ability to prevent bacteria growth. […] To ensure the SNAP attachment to ampicillin was not interfering with this targeted potency, a zone of inhibition (ZOI) test against S. aureus was done. […] This trend has been seen in the past with NO releasing hydrophobic polymers, where the ZOI is extremely limited beyond the interface of the polymer itself.^32
The characterization of covalent attachment of SNAP was verified through FTIR (Fourier Transform Infrared Spectroscopy) and NMR (Nuclear Magnetic Resonance Spectroscopy) and its NO releasing characteristics were compared to pure, unmodified SNAP. The combination of both NO and ampicillin in one unique compound allows for the dispersal of biofilms while making them more susceptible to the antibiotic moiety. […]

[5] = NO release kinetics of 500 μM solutions (Sievers 280i Nitric Oxide Analyzer); type: physicochemical; details: 500 μM in PBS (pH 7.4) with EDTA, 37° C., 4 h
Method: as §2
The NO release of the synthesized SNAPicillin was compared to pure SNAP by dissolving equimolar (500 μM) amounts of each into separate solutions of PBS (pH 7.4) containing 0.01 mM EDTA and placing them in an amber reaction vial submerged within a water bath at 37° C. while NO release was monitored in real time. Nitrogen gas was used to continuously purge the solution to examine the stabilized, passive release under these conditions. […] Although equimolar amounts of each component were used, the RSNO component on the SNAPicillin appears to be less reactive when compared to pure crystalline SNAP under physiological conditions.

biofilms = details: as low as; cited from earlier work
[6] = 500 μM solution in PBS, 24 h treatment, 48 h S. aureus biofilm
[7] = 500 μM solution in PBS, 24 h treatment

Structure (SMILES)	cumulative leaching from films, SNAP leaching study [1] [μmol cm-2]	reduction in planktonic bacteria in solution [2, 7] [%]	cumulative leaching from films, ampicillin study [3] [μmol cm^−2]	ZOI values against S. aureus (S. aureus) [mm]	further results
CC(=O)NC(C(=O)NC(C(=O)NC1C(=O)N2C1SC(C)(C)C2C(=O)O)c1ccccc1)C(C)(C)SN=O (stereo not drawn) [SNAPicillin]	0.051±0.10	99.5±0.264	0.043±0.003	34.0±1.40	reduction of viable bacteria adhered on the films (biofilm) [2, 6]: 99.9±0.18%; NO donor remaining within the CarboSil polymer films [4]: 21.9±1.72%; NO flux from blended films ([4]; equimolar blend in CarboSil films, PBS (pH 7.4) with EDTA, 37° C., 7 days): higher NO fluxes at every time point when compared to SNAP
CC1(C)S[C@@H]2[C@H](NC(=O)[C@H](N)c3ccccc3)C(=O)N2[C@H]1C(=O)O [ampicillin]		90.0±1.13	0.087±0.003	34.5±1.50	inhibition at 500 µM [2, 6]: 28.9 ± 5.89%
CC(=O)N[C@H](C(=O)O)C(C)(C)SN=O (racemic) [SNAP, S-nitroso-N-acetylpenicillamine]	1.307±0.536	96.2±1.15			inhibition at 500 µM [2]: 99.2 ± 0.762%; stabilized passive NO release rate of solutions [5]: slightly higher rate of NO release than SNAPicillin solutions; NO donor remaining within the CarboSil polymer films ([4]; pH 7.4): 0.25±0.17%; zone of inhibition against S. aureus, in words (S. aureus): only killing bacteria directly in contact with the film
[N]=O [NO, nitric oxide]					concentration of NO able to trigger the biofilm dispersal mechanism (biofilms): 450 pM
